Test results as given in ChEMBL document CHEMBL1132126, “Synthesis of spermidine and norspermidine dimers as high affinity polyamine transport inhibitors” (Bioorg Med Chem Lett, 1999).
pKi: −log10 of the molar value.

How the values were obtained:
Assay type in all cases: functional, cell-based
[1] = test system: T47D; assay: Inhibition of [3H]spermine transport by the compound was evaluated in T-47D human breast cancer cells
[2] = test system: ZR-75-1; assay: Inhibition of [3H]spermine transport by the compound was evaluated in ZR-75-1 human breast cancer cells
[3] = test system: T47D; assay: Inhibition of [3H]spermidine transport by the compound was evaluated in T-47D human breast cancer cells
[4] = test system: T47D; assay: Inhibition of [3H]putrescine transport by the compound was evaluated in T-47D human breast cancer cells

| Structure (SMILES) | pKi [1] | pKi [2] | pKi [3] | pKi [4] |
| --- | --- | --- | --- | --- |
| NCCCNCCCC(NCCCN)C(=O)NCCSSCCNC(=O)C(CCCNCCCN)NCCCN (stereo not drawn) | 4.80 | 5.40 | 4.90 | 5.51 |
| NCCCCN(CC#CCN(CCCN)CCCCN)CCCN | 4.56 |  | 4.77 | 5.72 |
| NCCCCN(CCCN)Cc1ccc(CN(CCCN)CCCCN)cc1 | 5.54 | 6.62 | 5.70 | 6.55 |
| NCCCN(C/C=C/CN(CCCN)CCCN)CCCN | 5.80 |  | 5.70 | 6.57 |
| NCCCCN(CCCN)CCCCN(CCCN)CCCCN | 5.37 |  | 5.31 | 6.14 |
| NCCCN(CCCN)C(=O)CCC(=O)N(CCCN)CCCN |  | 5.77 |  |  |
| NCCCN(CCCN)Cc1ccc(CN(CCCN)CCCN)cc1 | 5.82 | 6.15 | 5.82 | 6.80 |
| NCCCN(CCCN)CCCCN(CCCN)CCCN | 5.21 | 6.25 | 5.62 | 6.28 |
| NCCCN(CC#CCN(CCCN)CCCN)CCCN | 4.89 |  | 4.59 | 5.59 |
| NCCCCN(C/C=C/CN(CCCN)CCCCN)CCCN | 5.82 |  | 5.74 | 7.00 |
| NCCCCN [PUTRESCINE] |  |  |  | 5.13 |
| NCCCCNCCCN [SPERMIDINE] |  |  | 5.36 |  |
| NCCCNCCCCNCCCN [SPERMINE] | 5.57 | 6.70 | 6.04 | 6.19 |
